This note sets out measurements from patent publication US11130778B2, “CD73 inhibitors” (ORIC Pharmaceuticals, Inc., priority 2019, dated 2021).

SMILES strings stand for the structures. Where only a bound is given, the exact number is not on record here.

In this experiment the target is T1, CD73 (Homo sapiens, UniProt P21589).
T1 sequence (P21589 27-549): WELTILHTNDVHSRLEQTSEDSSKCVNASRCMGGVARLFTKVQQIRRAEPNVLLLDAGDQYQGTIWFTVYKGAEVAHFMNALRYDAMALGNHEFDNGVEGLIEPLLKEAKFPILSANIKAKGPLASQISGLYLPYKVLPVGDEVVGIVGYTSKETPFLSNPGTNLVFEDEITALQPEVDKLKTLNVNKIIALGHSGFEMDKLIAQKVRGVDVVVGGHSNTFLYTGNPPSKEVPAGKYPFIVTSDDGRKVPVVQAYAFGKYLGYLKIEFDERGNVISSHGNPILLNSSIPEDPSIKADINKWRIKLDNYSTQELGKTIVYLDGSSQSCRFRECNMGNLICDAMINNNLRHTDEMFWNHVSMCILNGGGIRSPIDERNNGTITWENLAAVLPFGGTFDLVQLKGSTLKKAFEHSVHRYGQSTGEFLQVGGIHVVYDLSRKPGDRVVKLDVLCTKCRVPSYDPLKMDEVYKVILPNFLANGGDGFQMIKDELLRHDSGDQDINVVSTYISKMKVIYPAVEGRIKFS
The experiment can be described thus: Biochemical assay of CD73 inhibition (Malachite Green). The settings on record: CD73 0.3208 nM, AMP 15 μM, Tris-HCl pH 7.4, Malachite Green absorbance readout; read-out: CD73_Biochem. As to the method: Example A1: Biochemical Assay
Assay Reaction Conditions
• Assay Volume: 70 μl • Reaction Volume: 50 μl • CD73: 0.3208 nM • AMP:15 μM • Assay Buffer: 2 5 mM Tris-HCL, pH 7.4, 0.01% Brij-35, 0.01% BSA, 5 mM MgCl2 Assay Procedure:
Made dose titration of testing compounds in assay buffer, 10 points 1/2 log titrations in duplicates starting at 100 μM.
Added 25 µl of CD73 to each well for a final concentration of […].
Incubated at RT for 15 min.
Added 25 µl of AMP to each well for a final concentration of 15 μM.
Incubated at RT for 10 min.
Added […] of Malachite Green Reagent A, incubate at RT for 10 min.
Added […] of Malachite Green Reagent B, incubate at RT for 45 min.
Read the Absorbance on Envision plate reader using excitation filter: Cy5 […].
The ability of the compounds disclosed herein to inhibit CD73 activity was quantified and the respective IC50 values were determined. Table 2 provides the biochemical IC50 values of compounds disclosed herein.
Consider `O=P(O)(O)C(CO)(CCCc1nn[nH]n1)OC[C@H]1O[C@@H](n2ncc3c(NC4CCCC4)nc(Cl)nc32)[C@H](O)[C@@H]1O` (stereo partly drawn) [Example 5, (2-(((2R,3S,4R,5R)-5-(6-chloro-4-(cyclopentylamino)-1H-pyrazolo[3,4-d]pyrimidin-1-yl)-3,4-dihydroxytetrahydrofuran-2-yl)methoxy)-1-hydroxy-5-(2H-tetrazol-5-yl)pentan-2-yl)phosphonic acid], for which the IC50 was no more than 10 nM.

Take `O=P(O)(O)C(CO)(Cc1c[nH]nn1)OC[C@H]1O[C@@H](n2ncc3c(NC4CCCC4)nc(Cl)nc32)[C@H](O)[C@@H]1O` (stereo partly drawn) [Example 13, (2-(((2R,3S,4R,5R)-5-(6-chloro-4-(cyclopentylamino)-1H-pyrazolo[3,4-d]pyrimidin-1-yl)-3,4-dihydroxytetrahydrofuran-2-yl)methoxy)-1-hydroxy-3-(1H-1,2,3-triazol-4-yl)propan-2-yl)phosphonic acid]: the IC50 fell in the range of 10 to 100 nM.

For `COC[C@@](COCc1nn[nH]n1)(OC[C@H]1O[C@@H](n2ncc3c(NC4CCCC4)nc(Cl)nc32)[C@H](O)[C@@H]1O)P(=O)(O)O` [Example 39, ((R)-1-((2H-tetrazol-5-yl)methoxy)-2-(((2R,3S,4R,5R)-5-(6-chloro-4-(cyclopentylamino)-1H-pyrazolo[3,4-d]pyrimidin-1-yl)-3,4-dihydroxytetrahydrofuran-2-yl)methoxy)-3-methoxypropan-2-yl)phosphonic acid], the IC50 is no more than 10 nM.

With `O=P(O)(O)[C@](CO)(COCc1nn[nH]n1)OC[C@H]1O[C@@H](n2ncc3c(NC4CCC4)nc(Cl)nc32)[C@H](O)[C@@H]1O` [Example 52, ((R)-1-((1H-tetrazol-5-yl)methoxy)-2-(((2R,3S,4R,5R)-5-(6-chloro-4-(cyclobutylamino)-1H-pyrazolo[3,4-d]pyrimidin-1-yl)-3,4-dihydroxytetrahydrofuran-2-yl)methoxy)-3-hydroxypropan-2-yl)phosphonic acid], the IC50 was no more than 10 nM.

Turning to `COC[C@](Cc1nn[nH]n1)(OC[C@H]1O[C@@H](n2ncc3c(NCC(C)C)nc(Cl)nc32)[C@H](O)[C@@H]1O)P(=O)(O)O` [Example 35, ((R)-2-(((2R,3S,4R,5R)-5-(6-chloro-4-(isobutylamino)-1H-pyrazolo[3,4-d]pyrimidin-1-yl)-3,4-dihydroxytetrahydrofuran-2-yl)methoxy)-1-methoxy-3-(2H-tetrazol-5-yl)propan-2-yl)phosphonic acid], the IC50 is no more than 10 nM.

With `C[C@H]1CCC[C@@H]1Nc1nc(Cl)nc2c1cnn2[C@@H]1O[C@H](COC(CO)(CO)P(=O)(O)O)[C@@H](O)[C@H]1O` [Example 14, (2-(((2R,3S,4R,5R)-5-(6-chloro-4-(((1S,2S)-2-methylcyclopentyl)amino)-1H-pyrazolo[3,4-d]pyrimidin-1-yl)-3,4-dihydroxytetrahydrofuran-2-yl)methoxy)-1,3-dihydroxypropan-2-yl)phosphonic acid], the IC50 was no more than 10 nM.

Take `O=P(O)(O)C(COCc1nnn[nH]1)(COCC1CC1)OC[C@H]1O[C@@H](n2ncc3c(NC4CCCC4)nc(Cl)nc32)[C@H](O)[C@@H]1O` (stereo in doubt) [Example 44, ((R)-1-((1H-tetrazol-5-yl)methoxy)-2-(((2R,3S,4R,5R)-5-(6-chloro-4-(cyclopentylamino)-1H-pyrazolo[3,4-d]pyrimidin-1-yl)-3,4-dihydroxytetrahydrofuran-2-yl)methoxy)-3-(cyclopropylmethoxy)propan-2-yl)phosphonic acid]: the IC50 is no more than 10 nM.

On to `O=P(O)(O)[C@@](CO)(Cc1nn[nH]n1)OC[C@H]1O[C@@H](n2ncc3c(NCC4CCC4)nc(Cl)nc32)[C@H](O)[C@@H]1O` [Example 20, ((R)-2-(((2R,3S,4R,5R)-5-(6-chloro-4-((cyclobutylmethyl)amino)-1H-pyrazolo[3,4-d]pyrimidin-1-yl)-3,4-dihydroxytetrahydrofuran-2-yl)methoxy)-1-hydroxy-3-(2H-tetrazol-5-yl)propan-2-yl)phosphonic acid], for which the IC50 lay in the range of 10 to 100 nM.

In the case of `COC[C@@](CC(=O)NO)(OC[C@H]1O[C@@H](n2ncc3c(NC4CCCC4)nc(Cl)nc32)[C@H](O)[C@@H]1O)P(=O)(O)O` [Example 7, ((S)-2-(((2R,3S,4R,5R)-5-(6-chloro-4-(cyclopentylamino)-1H-pyrazolo[3,4-d]pyrimidin-1-yl)-3,4-dihydroxytetrahydrofuran-2-yl)methoxy)-4-(hydroxyamino)-1-methoxy-4-oxobutan-2-yl)phosphonic acid], the IC50 was no more than 10 nM.

With `COCC(CCC(=O)O)(OC[C@H]1O[C@@H](n2ncc3c(NC4CCCC4)nc(Cl)nc32)[C@H](O)[C@@H]1O)P(=O)(O)O` (stereo partly drawn) [Example 6, 4-(((2R,3S,4R,5R)-5-(6-chloro-4-(cyclopentylamino)-1H-pyrazolo[3,4-d]pyrimidin-1-yl)-3,4-dihydroxytetrahydrofuran-2-yl)methoxy)-5-methoxy-4-phosphonopentanoic acid], the IC50 is no more than 10 nM.

`CC(Cc1nn[nH]n1)(OC[C@H]1O[C@@H](n2ncc3c(NC4CCCC4)nc(Cl)nc32)[C@H](O)[C@@H]1O)P(=O)(O)O` (stereo partly drawn) [Example 43, (2-(((2R,3S,4R,5R)-5-(6-chloro-4-(cyclopentylamino)-1H-pyrazolo[3,4-d]pyrimidin-1-yl)-3,4-dihydroxytetrahydrofuran-2-yl)methoxy)-1-(2H-tetrazol-5-yl)propan-2-yl)phosphonic acid]: the IC50 was no more than 10 nM.

With `COCCOCC(COCc1nnn[nH]1)(OC[C@H]1O[C@@H](n2ncc3c(NC4CCCC4)nc(Cl)nc32)[C@H](O)[C@@H]1O)P(=O)(O)O` (single isomer, unassigned) [Example 1], the IC50 is no more than 10 nM.

Consider `[2H]C([2H])([2H])OC[C@](COCc1nn[nH]n1)(OC[C@H]1O[C@@H](n2ncc3c(NC4CCCC4)nc(Cl)nc32)[C@H](O)[C@@H]1O)P(=O)(O)O` [Example 59, ((S)-1-((2H-tetrazol-5-yl)methoxy)-2-(((2R,3S,4R,5R)-5-(6-chloro-4-(cyclopentylamino)-1H-pyrazolo[3,4-d]pyrimidin-1-yl)-3,4-dihydroxytetrahydrofuran-2-yl)methoxy)-3-(methoxy-d3)propan-2-yl)phosphonic acid], for which the IC50 is no more than 10 nM.

As to `O=P(O)(O)C(CO)(OC[C@H]1O[C@@H](n2ncc3c(NC4CCCC4)nc(Cl)nc32)[C@H](O)[C@@H]1O)c1nn[nH]n1` (stereo partly drawn) [Example 49, (1-(((2R,3S,4R,5R)-5-(6-chloro-4-(cyclopentylamino)-1H-pyrazolo[3,4-d]pyrimidin-1-yl)-3,4-dihydroxytetrahydrofuran-2-yl)methoxy)-2-hydroxy-1-(2H-tetrazol-5-yl)ethyl)phosphonic acid], the IC50 was 10 to 100 nM.

`COC[C@](COCc1nn[nH]n1)(OC[C@H]1O[C@@H](n2ncc3c(NC4CCCC4)nc(Cl)nc32)[C@H](O)[C@@H]1O)P(=O)(O)O` [Example 38, ((S)-1-((2H-tetrazol-5-yl)methoxy)-2-(((2R,3S,4R,5R)-5-(6-chloro-4-(cyclopentamino)-1H-pyrazolo[3,4-d]pyrimidin-1-yl)-3,4-dihydroxytetrahydrofuran-2-yl)methoxy)-3-methoxypropan-2-yl)phosphonic acid]: the IC50 was no more than 10 nM.

`O=c1[nH]c(C[C@@](CO)(OC[C@H]2O[C@@H](n3ncc4c(NC5CCCC5)nc(Cl)nc43)[C@H](O)[C@@H]2O)P(=O)(O)O)no1` [Example 26, ((R)-2-(((2R,3S,4R,5R)-5-(6-chloro-4-(cyclopentylamino)-1H-pyrazolo[3,4-d]pyrimidin-1-yl)-3,4-dihydroxytetrahydrofuran-2-yl)methoxy)-1-hydroxy-3-(5-oxo-4,5-dihydro-1,2,4-oxadiazol-3-yl)propan-2-yl)phosphonic acid]: the IC50 is no more than 10 nM.

`CC(CS(C)(=O)=O)(OC[C@H]1O[C@@H](n2ncc3c(NC4CCCC4)nc(Cl)nc32)[C@H](O)[C@@H]1O)P(=O)(O)O` (stereo partly drawn) [Example 57, (2-(((2R,3S,4R,5R)-5-(6-chloro-4-(cyclopentylamino)-1H-pyrazolo[3,4-d]pyrimidin-1-yl)-3,4-dihydroxytetrahydrofuran-2-yl)methoxy)-1-(methylsulfonyl)propan-2-yl)phosphonic acid]: the IC50 is 10 to 100 nM.

Consider `O=P(O)(O)[C@](CO)(COCc1nn[nH]n1)OC[C@H]1O[C@@H](n2ncc3c(NCC4CC4)nc(Cl)nc32)[C@H](O)[C@@H]1O` [Example 21, ((R)-1-((2H-tetrazol-5-yl)methoxy)-2-(((2R,3S,4R,5R)-5-(6-chloro-4-((cyclopropylmethyl)amino)-1H-pyrazolo[3,4-d]pyrimidin-1-yl)-3,4-dihydroxytetrahydrofuran-2-yl)methoxy)-3-hydroxypropan-2-yl)phosphonic acid], for which the IC50 is no more than 10 nM.

`COC[C@](COCC(=O)O)(OC[C@H]1O[C@@H](n2ncc3c(NC4CCCC4)nc(Cl)nc32)[C@H](O)[C@@H]1O)P(=O)(O)O` [Example 10]: the IC50 was in the range of 10 to 100 nM.
